From PubChem BioAssay (NCI)
“And” between values parts separate entries of the source, which are not always exact repeats. Equal entries are not always repeated.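 Each compound was tested at five concentrations against cells in 96-well plates for 48 hours. GI50 = concentration required for 50% inhibition of growth. TGI: total growth inhibition.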

Tests used:
Assay in all cases: DTP human tumour cell line panel, 48 h
ACHN renal = test system: ACHN renal
HT29 colon = test system: HT29 colon
K-562 leukemia = test system: K-562 leukemia
NCI-H226 lung = test system: NCI-H226 lung
PC-3 prostate = test system: PC-3 prostate
SF-295 CNS = test system: SF-295 CNS
SW-620 colon = test system: SW-620 colon
U251 CNS = test system: U251 CNS
UO-31 renal = test system: UO-31 renal
UACC-62 melanoma = test system: UACC-62 melanoma

Structure (SMILES) | TGI (ACHN renal) [µM] | TGI (HT29 colon) | TGI (K-562 leukemia) | TGI (NCI-H226 lung) | TGI (PC-3 prostate) [µM] | TGI (SF-295 CNS) | TGI (SW-620 colon) | TGI (U251 CNS) | TGI (UO-31 renal) | TGI (UACC-62 melanoma) | GI50 (HT29 colon) [µM] | GI50 (K-562 leukemia) [µM] | GI50 (NCI-H226 lung) [µM] | GI50 (SF-295 CNS) [µM] | GI50 (SW-620 colon) [µM] | GI50 (U251 CNS) [µM] | GI50 (UACC-62 melanoma) [µM] | GI50 (UO-31 renal) | GI50 (ACHN renal) [µM] | GI50 (PC-3 prostate) [µM]
COc1cc(/C=N/NC(=O)c2c(Cl)c(Cl)c(Cl)c(Cl)c2-c2nc3ccc(C(=O)c4ccccc4)cc3[nH]2)ccc1O | > 100 | > 100 µM | > 100 µM | > 100 µM | > 100 | > 100 µM | > 100 µM | > 100 µM | > 100 µM |  |  |  |  |  |  |  |  |  |  | 
O=C(/C=C/c1ccc([N+](=O)[O-])cc1)N1CCN(CCOC(c2ccc(F)cc2)c2ccc(F)cc2)CC1 | > 100 | > 100 µM | > 100 µM | > 100 µM | > 100 | > 100 µM | > 100 µM | > 100 µM | 96.4 µM | > 100 µM |  |  |  |  |  |  |  |  |  | 
COc1cccc([C@@H]2C/C(=N\NC(=O)C(=O)N[C@@H](C)c3ccccc3)c3ccccc3N2)c1 | > 100 |  | > 100 µM | > 100 µM | > 100 | > 100 µM | > 100 µM | > 100 µM | > 100 µM | 38.4 µM |  |  |  |  |  |  |  |  |  | 
c1ccc(/C(=N\Nc2nc3ccccc3[nH]2)c2ccccn2)cc1 | 2 | 2.69 µM | > 100 µM | 2.09 µM | 37.7 | 9.26 µM | > 69.4 µM | > 28.5 µM | 6.73 µM | 6.23 µM |  |  |  |  |  |  |  |  |  | 
c1ccc(CSC(SCc2ccccc2)c2cccc3ccccc23)cc1 | > 10 | > 10 µM | > 10 µM | > 10 µM | > 10 | > 10 µM | > 10 µM | > 10 µM | > 10 µM | > 10 µM |  |  |  |  |  |  |  |  |  | 
C[n+]1c2ccccc2c(N=[N+]=[N-])c2ccccc21 | > 10 | > 10 µM | > 10 µM | > 10 µM | > 10 | > 10 µM | > 10 µM | > 10 µM |  | > 10 µM |  |  |  |  |  |  |  |  |  | 
O=C1OC(c2ccc(O)cc2)(c2ccc(O)cc2)c2ccc(Cl)c3cccc1c23 (tested in a mixture with another compound) | 39.8 | 23.9 µM | > 75 µM | 34 µM | 20.6 | 25.2 µM | 33.4 µM | 25.2 µM | > 75 µM | 21.9 µM |  |  |  |  |  |  |  |  |  | 
CC[C@@]1(O)CC(OC2CC(N3CCOCC3)C(O)C(C)O2)c2c(O)c3c(c(O)c2[C@H]1O)C(=O)c1cccc(O)c1C3=O (stereo not given in full) | 0.0815 | 3.23 µM and 2.33 µM | 6.69 µM and 4.03 µM | 0.597 µM and 0.102 µM | 0.811 | 0.526 µM and 0.357 µM | 5.93 µM and 9.38 µM | 1.73 µM and 0.348 µM | 1.57 µM and 3.28 µM | 0.428 µM and 0.301 µM | 0.0228 | 0.0426 | 0.0184 | 0.0292 | 0.121 | 0.0287 | 0.0389 | 0.437 µM and 0.828 µM |  | 
Cc1cc(C)c2c(=O)n(CC(O)CN(Cc3ccccc3)CC(O)Cn3sc4nc(C)cc(C)c4c3=O)sc2n1 (stereo not given) | 30.1 | 37.4 µM | > 100 µM | 33.5 µM | 30.4 | 61.9 µM | > 100 µM | 30.6 µM | 31.6 µM | 30.6 µM |  |  |  |  |  |  |  |  |  | 
NC1CCN(c2nc3ccccc3c3c2CCCC3)CC1 | 22.4 | 5.27 µM | 6.58 µM | 24.3 µM | 20.4 | 26.4 µM | 12.7 µM | 14.8 µM | 12.2 µM | 3.8 µM |  |  |  |  |  |  |  |  |  | 
O=C(CSCC(=O)N/N=C\c1ccc(F)cc1F)N/N=C\c1ccc(F)cc1F | > 100 | > 100 µM |  | > 100 µM |  | > 100 µM | > 100 µM | > 100 µM | > 100 µM | > 100 µM |  |  |  |  |  |  |  |  |  | 
C=C(CN(C)C)C(=O)c1ccccc1OC | 28.2 | 46 µM | > 54.1 µM | 62.7 µM | 31.9 | > 71.9 µM | 19.6 µM | 66.3 µM | 31.3 µM | 37 µM |  |  |  |  |  |  |  |  |  | 
O=C(O)c1cc2ccccc2c(N=Nc2ccc(S(=O)(=O)Nc3ccccn3)cc2)c1O | > 100 | > 100 µM | > 100 µM | > 100 µM | > 100 | > 100 µM | > 100 µM | > 100 µM | > 100 µM | > 100 µM |  |  |  |  |  |  |  |  |  | 
CC1(C)CN(CC(=O)O)CC(Cc2ccc(OCC(=O)O)cc2)N(CC(=O)O)CC(C)(C)SS1 (stereo not given) | > 100 | > 100 µM | > 100 µM | > 100 µM | > 100 | > 100 µM | > 100 µM | > 100 µM | > 100 µM | > 100 µM |  |  |  |  |  |  |  |  |  | 
CCOC(=O)C1=C(C(=O)OCC)SC2(S1)C(C(=O)OCC)=C(C(=O)OCC)Sc1c2ssc1=O | 3.11 | 3.75 µM | 3.06 µM | 42.2 µM | 2.96 | 28.8 µM | 1.89 µM | 3.95 µM | 3.25 µM | 3.68 µM |  |  |  |  |  |  |  |  |  | 
COc1ccccc1C#C/C=C\C#Cc1ccccc1C#N | > 100 | > 100 µM | > 100 µM |  | > 100 | 47.1 µM | 65.7 µM | > 100 µM | 67.2 µM | > 100 µM |  |  |  |  |  |  |  |  |  | 
N#CC1(CCCI)CCCC1 | > 100 | 80.6 µM | > 100 µM |  |  | 94.7 µM | > 100 µM | 26.3 µM | > 100 µM | 35.8 µM |  |  |  |  |  |  |  |  |  | 
C[C@]12CC[C@H]3[C@@H](CC=C4C[C@@H](O)CC[C@@]43C)[C@@H]1C/C(=C\c1ccncc1)[C@@H]2O | 50.5 | > 100 µM | > 100 µM | 57.2 µM | 43 | 35.5 µM | > 100 µM | 33.9 µM | > 100 µM | 30.7 µM |  |  |  |  |  |  |  |  |  | 
Cc1[nH]c2ncn3[nH]c(=S)nc3c2c1Cc1ccccc1 | > 100 | > 100 µM |  | > 100 µM | > 100 | > 100 µM | > 100 µM | > 100 µM | > 100 µM | > 100 µM |  |  |  |  |  |  |  |  |  | 
Cc1ncc(C(=O)Nc2ccc(CN3CCN(C)CC3)c(C(F)(F)F)c2)cc1C#Cc1cnc(N)c2ccc(C#N)cc12 |  |  |  | 0.593 µM |  | 33.1 µM |  |  |  | 0.0717 µM |  |  | 0.0345 | 0.0545 |  |  | < 0.0108 |  |  | 
CC(C)CCN(CCC(C)C)CC(=O)Nc1ccc(S(=O)(=O)c2ccc(NC(=O)CN(CCC(C)C)CCC(C)C)cc2)cc1 | 4.68 | 3.29 µM |  | 11.5 µM | 5.89 | 16.5 µM | 3.74 µM |  | 12.8 µM | 3.52 µM | 1.58 |  | 2.91 | 3.86 | 1.55 |  | 1.55 | 2.07 µM | 1.94 | 2.01
O=C1Nc2cccc(Cl)c2/C1=C\c1cccnc1 | > 100 | > 100 µM | 36.5 µM |  | > 100 | 34.6 µM | 37.7 µM | 35.2 µM | 18.5 µM |  |  |  |  |  |  |  |  |  |  | 
O=C1N[C@H]2C(=O)c3c(Br)sc(Br)c3[C@H]2O1 | 18.1 | 6.59 µM | > 21.7 µM | 34.6 µM | 16.4 | 37 µM | 4.76 µM | 8.87 µM | 4.22 µM | 26.7 µM |  |  |  |  |  |  |  |  |  | 
COC(=O)c1c(O)ccc2c1c1c(n2CCc2ccc(OC)c(OC)c2)C(=O)c2ccccc2C1=O | 35.9 | 10.5 µM | > 100 µM | 50.3 µM | 35.9 | 38 µM |  | 43.2 µM | 34.6 µM | 32.9 µM |  |  |  |  |  |  |  |  |  | 
Nc1ccc(Oc2ccc(C34CC5CC(C3)CC(c3ccc(Oc6ccc(N)cc6C(F)(F)F)cc3)(C5)C4)cc2)c(C(F)(F)F)c1 | > 100 | 35.6 µM | > 100 µM | 35.7 µM | 29.2 | 79.9 µM | > 100 µM | 27.6 µM | > 100 µM | 62.3 µM |  |  |  |  |  |  |  |  |  | 
Cc1csc2nc(-c3cccc([N+](=O)[O-])c3)c(/C=N/N=C(N)N)n12 | 3.63 | 3.27 µM |  |  | 3.08 | 3.12 µM | 2.98 µM | 3.4 µM | 2.68 µM | 2.8 µM |  |  |  |  |  |  |  |  |  | 
CCCCCCCCCCCCc1ccc(S(=O)(=O)O)cc1.[Cu+2] | > 100 | > 100 µM | > 100 µM |  | > 100 | > 100 µM | > 100 µM | > 100 µM | > 100 µM | > 100 µM |  |  |  |  |  |  |  |  |  | 
N#Cc1c(-c2ccc([N+](=O)[O-])cc2)c2c([nH]c1=O)-c1ccccc1CCC2 | > 100 | > 100 µM | > 100 µM | 96.2 µM | > 100 | > 100 µM | > 100 µM | > 100 µM | > 100 µM | > 100 µM |  |  |  |  |  |  |  |  |  | 
